Data from patent publication US20230092890A1, “1, 3, 4-Oxadiazole derivative compounds as histone deacetylase 6 inhibitor, and the pharmaceutical composition comprising the same” (Chong Kun Dang Pharmaceutical Corp., priority 2019, published 2023).

Tests used:
HDAC1 = target: T1, HDAC1 (Homo sapiens, UniProt Q13547); assay: HDAC enzyme activity inhibition (in vitro), HDAC1 Fluorimetric Drug Discovery Assay Kit; format: biochemical; details: samples at 100, 1000 and 10000 nM; 37° C. 60 minutes; fluorescence Ex 390, Em 460; read-out: HDAC1 IC50
T1 construct: purchased Enzolifesciences BML-AK511
In short: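 Fluorimetric read-out (Ex 390, Em 460) after a 60 min 37° C enzyme reaction and 30 min 37° C developer step. Tested levels: 0.1-1000 nM (0.1, 1, 10, 100, 1000) on recombinant human HDAC6; 100, 1000 and 10000 nM on HDAC1 kit enzyme.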

HDAC6 human recombinant = target: T2, HDAC6 human recombinant (Homo sapiens, UniProt Q9UBN7); assay: HDAC enzyme activity inhibition (in vitro), HDAC6 assay; format: biochemical; details: samples at 0.1, 1, 10, 100 and 1000 nM; 37° C. 60 minutes; fluorescence Ex 390, Em 460; read-out: HDAC6 IC50
T2 construct: purchased Calbiochem 382180
T2 sequence (Q9UBN7 1-1215): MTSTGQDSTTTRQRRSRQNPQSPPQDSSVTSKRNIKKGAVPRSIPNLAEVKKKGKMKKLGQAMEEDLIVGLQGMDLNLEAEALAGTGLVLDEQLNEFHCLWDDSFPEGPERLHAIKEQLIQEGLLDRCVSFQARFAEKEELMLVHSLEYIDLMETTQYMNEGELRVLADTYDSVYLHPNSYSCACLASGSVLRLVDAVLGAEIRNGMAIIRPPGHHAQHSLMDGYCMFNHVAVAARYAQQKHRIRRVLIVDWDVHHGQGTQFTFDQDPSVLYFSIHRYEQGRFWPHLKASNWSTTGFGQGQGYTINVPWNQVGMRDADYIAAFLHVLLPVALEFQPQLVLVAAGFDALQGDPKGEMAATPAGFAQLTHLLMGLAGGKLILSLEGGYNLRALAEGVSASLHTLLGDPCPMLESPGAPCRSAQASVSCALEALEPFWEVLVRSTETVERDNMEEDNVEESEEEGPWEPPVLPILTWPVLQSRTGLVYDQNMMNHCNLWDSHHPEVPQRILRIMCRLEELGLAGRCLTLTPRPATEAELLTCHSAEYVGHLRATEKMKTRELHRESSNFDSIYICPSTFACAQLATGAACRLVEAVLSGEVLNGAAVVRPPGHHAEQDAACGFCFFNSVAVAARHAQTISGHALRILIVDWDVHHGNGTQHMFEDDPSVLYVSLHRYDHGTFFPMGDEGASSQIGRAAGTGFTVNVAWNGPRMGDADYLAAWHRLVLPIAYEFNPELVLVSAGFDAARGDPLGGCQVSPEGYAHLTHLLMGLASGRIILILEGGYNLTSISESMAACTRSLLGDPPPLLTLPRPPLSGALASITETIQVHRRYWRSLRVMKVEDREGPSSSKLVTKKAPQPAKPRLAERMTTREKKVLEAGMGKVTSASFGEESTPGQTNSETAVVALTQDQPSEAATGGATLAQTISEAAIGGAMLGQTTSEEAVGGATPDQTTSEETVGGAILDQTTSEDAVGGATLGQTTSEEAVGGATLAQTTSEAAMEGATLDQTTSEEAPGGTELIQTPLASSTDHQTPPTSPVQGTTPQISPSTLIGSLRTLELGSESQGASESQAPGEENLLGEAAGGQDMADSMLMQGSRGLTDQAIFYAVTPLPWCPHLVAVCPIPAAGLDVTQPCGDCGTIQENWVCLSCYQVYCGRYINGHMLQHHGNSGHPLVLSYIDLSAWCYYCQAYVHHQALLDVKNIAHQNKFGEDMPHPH
In short: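 Fluorescence (Ex 390, Em 460) read after a 37° C, 60 min enzyme reaction and a further 30 min developer step at 37° C. Uses recombinant human HDAC6; HDAC1 arm dosed at 100, 1000, 10000 nM.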

T1 sequence (Q13547 whole entry): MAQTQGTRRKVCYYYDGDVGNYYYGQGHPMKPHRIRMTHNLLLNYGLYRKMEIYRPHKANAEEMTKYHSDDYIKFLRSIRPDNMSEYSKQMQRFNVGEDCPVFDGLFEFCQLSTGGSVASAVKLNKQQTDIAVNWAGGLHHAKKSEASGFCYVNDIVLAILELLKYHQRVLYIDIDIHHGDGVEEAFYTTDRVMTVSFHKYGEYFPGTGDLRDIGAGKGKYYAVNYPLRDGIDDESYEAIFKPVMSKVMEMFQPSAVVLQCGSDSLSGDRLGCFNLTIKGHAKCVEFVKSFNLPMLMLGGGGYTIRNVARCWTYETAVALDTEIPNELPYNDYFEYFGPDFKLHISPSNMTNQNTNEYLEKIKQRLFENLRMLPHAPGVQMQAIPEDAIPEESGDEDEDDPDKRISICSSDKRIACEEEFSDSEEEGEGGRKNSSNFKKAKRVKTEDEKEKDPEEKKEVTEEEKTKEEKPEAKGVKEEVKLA

Row | Compound | IC50 (HDAC1) | IC50 (HDAC6 human recombinant)
1 | O=c1n(Cc2ccc(-c3nnc(C(F)F)o3)cc2F)c2cc(C(F)(F)F)ccc2n1C1CCN(C2COC2)CC1 [Compound 92, 3-(4-(5-(difluoromethyl)-1,3,4-oxadiazole-2-yl)-2-fluorobenzyl)-1-(1-(oxetan-3-yl)piperidine-4-yl)-5-(trifluoromethyl)-1,3-dihydro-2H-benzo[d]imidazole-2-one] | > 10000 nM | 62 nM
2 | O=c1sc2cc(-c3cnn(C4CCN(CC(F)(F)F)CC4)c3)ccc2n1Cc1ccc(-c2nnc(C(F)F)o2)cn1 [Compound 356, 3-((5-(5-(difluoromethyl)-1,3,4-oxadiazole-2-yl)pyridine-2-yl)methyl)-6-(1-(1-(2,2,2-trifluoroethyl)piperidine-4-yl)-1H-pyrazole-4-yl)benzo[d]thiazole-2(3H)-one] | > 10000 nM | 84 nM
3 | O=C(c1cncnc1)N1CCC(n2c(=O)n(Cc3ccc(-c4nnc(C(F)F)o4)cn3)c3cc(F)ccc32)CC1 [Compound 64, 3-((5-(5-(difluoromethyl)-1,3,4-oxadiazole-2-yl)pyridine-2-yl)methyl)-5-fluoro-1-(1-(pyrimidine-5-carbonyl)piperidine-4-yl)-1,3-dihydro-2H-benzo[d]imidazole-2-one] | > 10000 nM | 44 nM
4 | Cn1c(=O)n(Cc2ccc(-c3nnc(C(F)F)o3)cc2F)c2cc(F)ccc21 [Compound 143, 3-(4-(5-(difluoromethyl)-1,3,4-oxadiazole-2-yl)-2-fluorobenzyl)-5-fluoro-1-methyl-1,3-dihydro-2H-benzo[d]imidazole-2-one] | > 10000 nM | 71 nM

Continued, values first:

Row | IC50 (HDAC1) | IC50 (HDAC6 human recombinant) | Compound
5 | > 10000 nM | 18 nM | Cn1c(=O)n(Cc2ccc(-c3nnc(C(F)F)o3)cn2)c2cc(F)ccc21 [Compound 142, 3-((5-(5-(difluoromethyl)-1,3,4-oxadiazole-2-yl)pyridine-2-yl)methyl)-5-fluoro-1-methy 1-1,3-dihydro-2H-benzo[d]imidazole-2-one]
6 | > 10000 nM | 34 nM | O=c1oc2cc(-c3cccc4[nH]ccc34)ccc2n1Cc1ccc(-c2nnc(C(F)F)o2)cn1 [Compound 306, 3-((5-(5-(difluoromethyl)-1,3,4-oxadiazole-2-yl)pyridine-2-yl)methyl)-6-(1H-indole-4-yl)benzo[d]oxazole-2(3H)-one]
7 | > 10000 nM | 165 nM | CC(C)N1CCC(c2ccc3c(c2)oc(=O)n3Cc2ccc(-c3nnc(C(F)F)o3)cn2)CC1 [Compound 313, 3-((5-(5-(difluoromethyl)-1,3,4-oxadiazole-2-yl)pyridine-2-yl)methyl)-6-(1-isopropylpiperidine-4-yl)benzo[d]oxazole-2(3H)-one]
8 | > 10000 nM | 42 nM | O=c1n(CCN2CCOCC2)c2cc(-c3cccnc3)c(F)cc2n1Cc1ccc(-c2nnc(C(F)F)o2)cn1 [Compound 267, 1-((5-(5-(difluoromethyl)-1,3,4-oxadiazole-2-yl)pyridine-2-yl)methyl)-6-fluoro-3-(2-morpholinoethyl)-5-(pyridine-3-yl)-1,3-dihydro-2H-benzo[d]imidazole-2-one]
9 | > 10000 nM | 92 nM | CN1CCC(n2c(=O)n(Cc3ccc(-c4nnc(C(F)F)o4)cc3F)c3ccc(-c4ccccc4F)cc32)CC1 [Compound 160, 1-(4-(5-(difluoromethyl)-1,3,4-oxadiazole-2-yl)-2-fluorobenzyl)-5-(2-fluorophenyl)-3-(1-methylpiperidine-4-yl)-1,3-dihydro-2H-benzo[d]imidazole-2-one]
